Test results: ChEMBL document CHEMBL1201862, “PubChem BioAssay data set” (2004)
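Five concentrations, 48 hours, 96-well plates. GI50: concentration for 50% inhibition of growth.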 Active and inactive are the calls of the source. Rule as the data show it: active = GI50 up to about 1.1 µM and inactive = higher.

How the values were obtained:
Experiment in all cases: inhibition of tumour cell growth, NCI panel, 48 h
M14 = test system: M14
DU-145 = test system: DU-145
HOP-62 = test system: HOP-62
SK-MEL-2 = test system: SK-MEL-2
Malme-3M = test system: Malme-3M
K562 = test system: K562
SF-268 = test system: SF-268
SK-MEL-5 = test system: SK-MEL-5
U-251 = test system: U-251
CAKI-1 = test system: CAKI-1
ACHN = test system: ACHN
HL-60 = test system: HL-60
LOX IMVI = test system: LOX IMVI
OVCAR-4 = test system: OVCAR-4
A498 = test system: A498
UO-31 = test system: UO-31
RPMI-8226 = test system: RPMI-8226
HOP-92 = test system: HOP-92
MDA-N = test system: MDA-N
SR = test system: SR

Compound	GI50 (M14)	GI50 (DU-145)	GI50 (HOP-62)	GI50 (SK-MEL-2)	GI50 (Malme-3M)	GI50 (K562)	GI50 (SF-268)	GI50 (SK-MEL-5)	GI50 (U-251)	GI50 (CAKI-1)	GI50 (ACHN)	GI50 (HL-60)	GI50 (LOX IMVI)	GI50 (OVCAR-4)	GI50 (A498)	GI50 (UO-31)	GI50 (RPMI-8226)	GI50 (HOP-92)	GI50 (MDA-N)	GI50 (SR)
CC1(C)CC(=O)c2c(nc(SSc3nc4c(c(-c5ccccc5)c3C#N)C(=O)CC(C)(C)C4)c(C#N)c2-c2ccccc2)C1	> 10 µM (inactive)	> 10 µM (inactive)	> 10 µM (inactive)	> 10 µM (inactive)	> 10 µM (inactive)	> 10 µM (inactive)	> 10 µM (inactive)	> 10 µM (inactive)	> 10 µM (inactive)	> 10 µM (inactive)	> 10 µM (inactive)	> 10 µM (inactive)	> 10 µM (inactive)	> 10 µM (inactive)	> 10 µM (inactive)	> 10 µM (inactive)	> 10 µM (inactive)	> 10 µM (inactive)		
Cc1cc(S(=O)(=O)Nc2nc3ccccc3c(=O)n2N)c(S)cc1Cl	39.6 µM (inactive)	43 µM (inactive)	14.8 µM (inactive)	29.3 µM (inactive)	23.1 µM (inactive)	47.2 µM (inactive)		29.6 µM (inactive)	23.1 µM (inactive)	31.8 µM (inactive)	33.6 µM (inactive)	> 100 µM (inactive)	37.2 µM (inactive)	29.6 µM (inactive)			34.7 µM (inactive)		38.1 µM (inactive)	
NC(=O)c1ncn(C2OC(CO)C(O)C2O)c1O (stereo unspecified)	> 100 µM (inactive)		> 100 µM (inactive)	> 100 µM (inactive)	> 100 µM (inactive)	> 100 µM (inactive)	> 100 µM (inactive)		> 100 µM (inactive)	83.4 µM (inactive)	> 100 µM (inactive)	50.2 µM (inactive)	> 100 µM (inactive)	> 100 µM (inactive)	> 100 µM (inactive)	61.9 µM (inactive)	> 100 µM (inactive)	46.8 µM (inactive)		69 µM (inactive)
Cc1cc2[nH]c3c(C#N)c(-c4ccccc4)c(CN4CCOCC4)c(=O)n3c2cc1C	> 100 µM (inactive)		> 100 µM (inactive)	> 100 µM (inactive)	> 100 µM (inactive)		> 100 µM (inactive)		> 100 µM (inactive)	> 100 µM (inactive)	> 100 µM (inactive)		> 100 µM (inactive)	> 100 µM (inactive)	> 100 µM (inactive)	> 100 µM (inactive)	> 100 µM (inactive)		> 100 µM (inactive)	
Cc1c2c(OCCCCN3CCN(c4ncccn4)CC3)nn(C)c(=O)c2c(C)n1-c1ccccc1	20.7 µM (inactive)	17.1 µM (inactive)	25.7 µM (inactive)	19.6 µM (inactive)	20.2 µM (inactive)	30.8 µM (inactive)	18.7 µM (inactive)	13.8 µM (inactive)	18.1 µM (inactive)	16.9 µM (inactive)	17.4 µM (inactive)	21.1 µM (inactive)	20.4 µM (inactive)	19.5 µM (inactive)	16.9 µM (inactive)	15.8 µM (inactive)	20.2 µM (inactive)	16.4 µM (inactive)		
Cc1nc2c(o1)C(=O)c1ccccc1/C2=N/c1ccccn1	18.6 µM (inactive)		18.4 µM (inactive)	18.8 µM (inactive)	12.5 µM (inactive)	29.8 µM (inactive)	24.2 µM (inactive)	16.7 µM (inactive)	16.8 µM (inactive)	25.8 µM (inactive)	17.3 µM (inactive)	15.5 µM (inactive)	19.1 µM (inactive)	15 µM (inactive)	16.7 µM (inactive)	22.6 µM (inactive)	17.4 µM (inactive)	18.2 µM (inactive)	17.3 µM (inactive)	24.1 µM (inactive)
CCN(CC)CCC(=O)OC1C(C)=CC(C)C(=O)CC(C(C)CC2CCC(O)C(OC)C2)OC(=O)C2CCCCN2C(=O)C(=O)[C@@]2(O)OC(CCC2C)CC(OC)\C(C)=C/C=C/C=C/C(C)CC(C)C(=O)C1OC (stereo partly specified)	10.4 µM (inactive)		< 0.01 µM (active)			< 0.0183 µM (active)	1.07 µM (active)		10.4 µM (inactive)	0.975 µM (active)	1.05 µM (active)	1.96 µM (inactive)	< 0.01 µM (active)	< 0.01 µM (active)	< 0.01 µM (active)	< 0.01 µM (active)	0.415 µM (active)	< 0.01 µM (active)	8.61 µM (inactive)	< 0.01 µM (active)
CC(C)(CN1CCCCC1)C(/C=C/c1ccccc1)=N\NC(=O)N/N=C(/C=C/c1ccccc1)C(C)(C)CN1CCCCC1	1.71 µM (inactive)		1.85 µM (inactive)	2.01 µM (inactive)	2.04 µM (inactive)	1.19 µM (inactive)	3.24 µM (inactive)	1.72 µM (inactive)	1.63 µM (inactive)	2.27 µM (inactive)	3.32 µM (inactive)	1.08 µM (active)	1.8 µM (inactive)	3.93 µM (inactive)	1.5 µM (inactive)	1.13 µM (inactive)	1.27 µM (inactive)	1.75 µM (inactive)	1.63 µM (inactive)	0.508 µM (active)
